Reference: ChEMBL document CHEMBL4433258, “Structure-activity relationships study of neolamellarin A and its analogues as hypoxia inducible factor-1 (HIF-1) inhibitors” (Bioorg Med Chem Lett, 2019)

Legend:
[1] = Cytotoxicity against human HeLa cells assessed as growth inhibition incubated for 60 hrs under normoxic condition by MTT assay; format: cell-based
[2] = Inhibition of HIF-1 in human HeLa cells transfected with CMV driven renilla luciferase reporter gene incubated for 1 hr under normoxic condition and 12 hrs under hypoxia condition by HRE-based dual luciferase reporter gene assay; format: cell-based

| Structure (SMILES) | IC50 [2] | GI50 at 60 h [1] |
| --- | --- | --- |
| COc1ccc(CCC(=O)n2cc(-c3ccc(OC)cc3)c(-c3ccc(OC)cc3)c2)cc1 | 26.8 µM | > 100 µM |
| O=C(c1ccccc1)n1cc(-c2ccc(O)cc2)c(-c2ccc(O)cc2)c1 | 16.8 µM | 32.9 µM |
| O=C(c1ccccc1)n1cc(-c2ccccc2)c(-c2ccccc2)c1 | 16 µM | 67.1 µM |
| COc1ccc(C(=O)n2cc(-c3ccc(OC)cc3)c(-c3ccc(OC)cc3)c2)cc1 | 24.4 µM | > 100 µM |
| COc1ccc(-c2cn(C(=O)C(OC)c3ccc(OC)cc3)cc2-c2ccc(OC)cc2)cc1 (stereo unspecified) | > 50 µM | > 100 µM |
| COc1ccc(/C=C/C(=O)n2cc(-c3ccc(OC)cc3)c(-c3ccc(OC)cc3)c2)cc1 | > 100 µM | > 100 µM |
| COc1ccc(CC(=O)n2cc(-c3ccc(OC)cc3)c(-c3ccc(OC)cc3)c2)cc1 | 22.5 µM | > 100 µM |
| O=C(c1ccc(O)cc1)n1cc(-c2ccc(O)cc2)c(-c2ccc(O)cc2)c1 | 18.8 µM | 76 µM |
| O=C(/C=C/c1ccc(O)cc1)n1cc(-c2ccc(O)cc2)c(-c2ccc(O)cc2)c1 | 16.6 µM | 27.3 µM |

Now those with a lower IC50 [2], led by results:

| IC50 [2] | Structure (SMILES) | GI50 at 60 h [1] |
| --- | --- | --- |
| 14.6 µM | COc1ccc(-c2cn(C(=O)c3ccccc3)cc2-c2ccc(OC)cc2)cc1 | > 100 µM |
| 14.7 µM | O=C(CCc1ccc(O)cc1)n1cc(-c2ccc(O)cc2)c(-c2ccc(O)cc2)c1 | 51.5 µM |
| 11.9 µM | COc1ccc(-c2cn(C(=O)C(O)c3ccc(OC)cc3)cc2-c2ccc(OC)cc2)cc1 (stereo unspecified) | 44.2 µM |
| 10.8 µM | O=C(Cc1ccc(O)cc1)n1cc(-c2ccc(O)cc2)c(-c2ccc(O)cc2)c1 [NEOLAMELLARIN A] | 59.5 µM |
